What was measured:
[1] = Activation of PPARgamma Q286G mutant-mediated transcriptional activity assessed as Gal4 reporter activity
[2] = Activation of PPARgamma L469A mutant-mediated transcriptional activity assessed as Gal4 reporter activity
[3] = Activation of PPARgamma I472A mutant-mediated transcriptional activity assessed as Gal4 reporter activity
[4] = Activation of PPARgamma L465A mutant-mediated transcriptional activity assessed as Gal4 reporter activity

EC50 [1]: 0.207 µM
EC50 [2]: > 10 µM
EC50 [3]: > 10 µM
EC50 [4]: > 10 µM
SMILES: CN(CCOc1ccc(CC2SC(=O)NC2=O)cc1)c1ccccn1 (centres undefined) [ROSIGLITAZONE]

From ChEMBL document CHEMBL1156456, “Insights into the mechanism of partial agonism: crystal structures of the peroxisome proliferator-activated receptor gamma ligand-binding domain in the complex with two enantiomeric ligands” (J Biol Chem, 2007)
